US9789087B2, “PAR4 inhibitor therapy for patients with PAR4 polymorphism” (THOMAS JEFFERSON UNIVERSITY, priority 2015, dated 2017)
Numbering of substitutions follows the chain as printed. “Also recorded” adds a separate entry of the source.

How the values were obtained:
PAR4 [1] = test: PAR4-AP-induced platelet aggregation, light transmission aggregometry, donors genotyped for rs773902; assay type: cell-based, human; details: 100 μM PAR4-AP
Method: FIGS. 5A-5C show PAR4 variants are differentially susceptible to pharmacological inhibition. Platelets from donors genotyped for […] were washed, incubated with the indicated concentrations of vorapaxar (VPX) (FIGS. 5A, 5B) or YD-3 (FIG. 5C) and then stimulated with (FIG. 5A) 5 μM PAR1-AP or (FIGS. 5B, 5C) 100 μM PAR4-AP. Aggregation was measured using light transmission aggregometry. n=3 each genotype. Horizontal lines indicate mean. (P=0.02). […] Craig Lindsley at Vanderbilt University) as previously described.^27 Aggregation was then quantified after stimulation with 5 μM PAR1-AP or 100 μM PAR4-AP.

PAR4-Thr120 = target: T1, PAR4-Thr120 (Homo sapiens, UniProt Q96RI0, A120T); test: PAR4-AP-induced platelet aggregation, platelets of PAR4-Thr120 homozygotes; assay type: cell-based; details: homozygous PAR4-Thr120, up to 1 μM YD-3, 100 μM PAR4-AP, FIG. 5C
T1 construct: endogenous in cells; host or cells: washed platelets of human donors homozygous for rs773902 A (Thr120)
T1 sequence (Q96RI0 18-385 A120T): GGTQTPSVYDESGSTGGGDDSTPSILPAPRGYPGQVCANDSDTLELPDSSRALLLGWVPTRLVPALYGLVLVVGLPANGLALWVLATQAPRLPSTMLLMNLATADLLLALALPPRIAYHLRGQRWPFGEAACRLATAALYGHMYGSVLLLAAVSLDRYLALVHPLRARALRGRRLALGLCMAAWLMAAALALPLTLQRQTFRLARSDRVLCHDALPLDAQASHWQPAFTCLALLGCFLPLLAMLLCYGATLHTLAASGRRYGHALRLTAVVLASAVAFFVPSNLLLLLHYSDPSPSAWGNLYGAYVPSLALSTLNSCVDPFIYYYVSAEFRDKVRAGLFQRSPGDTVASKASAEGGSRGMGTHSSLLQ
Method: (§1) FIGS. 5A-5C show PAR4 variants are differentially susceptible to pharmacological inhibition. Platelets from donors genotyped for rs773902 were washed, incubated with the indicated concentrations of vorapaxar (VPX) (FIGS. 5A, 5B) or YD-3 (FIG. 5C) and then stimulated with (FIG. 5A) 5 μM PAR1-AP or (FIGS. 5B, 5C) 100 μM PAR4-AP. Aggregation was measured using light transmission aggregometry. n=3 each genotype. Horizontal lines indicate mean. (P=0.02).
(§2) Platelets were pre-incubated with the indicated concentrations of vorapaxar^26 (Axon Medchem, Reston, Va., USA) or YD-3 [1-benzyl-3-(ethoxycarbonylphenyl)-indazole]^7 (a gift from Dr. Craig Lindsley at Vanderbilt University) as previously described.^27 Aggregation was then quantified after stimulation with 5 μM PAR1-AP or 100 μM PAR4-AP.
(§3) Multiple linear regression analysis was performed including the PAR4 protein level and the risk SNPs as explanatory variables and PAR4 reactivity as the dependent variable. To determine fraction of variance of PAR4 reactivity explained by PAR4 protein levels and F2RL3 genotype, PAR4 protein level was brought into the model first followed by rs773902 genotype. To test for an interaction between rs773902 and YD-3, a linear regression was performed, using aggregation as the dependent variable and PAR4-AP concentration, YD3 concentration, and rs773902 genotype as […]. […]

PAR4-Ala120 = target: T2, PAR4-Ala120 (Homo sapiens, UniProt Q96RI0); test: PAR4-AP-induced platelet aggregation, platelets of PAR4-Ala120 homozygotes; assay type: cell-based; details: 0.5 μM YD-3, 100 μM PAR4-AP, FIG. 5C
T2 construct: endogenous in cells; host or cells: washed platelets of human donors homozygous for rs773902 G (Ala120)
T2 sequence (Q96RI0 18-385): T1 sequence (Q96RI0 18-385 A120T) with T103A
Method: as §1, §2, §3

PAR4 [2] = target: T3, PAR4 (Homo sapiens, UniProt Q96RI0); details: cited from earlier work
T3 construct: host or cells: platelets (cited work)
T3 sequence (Q96RI0 18-385): T1 sequence (Q96RI0 18-385 A120T) with T103A

platelets [3] = details: cited from earlier work
smooth muscle cell = details: cited from earlier work
platelets [4] = details: cited from earlier work; remark: listed apart in the source
[5] = oral, rat carotid balloon injury; cited from earlier work
PAR1 = target: T4, PAR1 (Homo sapiens, UniProt P25116); test: PAR1-AP-induced platelet aggregation, light transmission aggregometry; assay type: cell-based; details: washed platelets, 5 μM PAR1-AP, FIG. 5A
T4 construct: endogenous in cells; host or cells: washed platelets of healthy human donors (cohort 2)
T4 sequence (P25116 22-425): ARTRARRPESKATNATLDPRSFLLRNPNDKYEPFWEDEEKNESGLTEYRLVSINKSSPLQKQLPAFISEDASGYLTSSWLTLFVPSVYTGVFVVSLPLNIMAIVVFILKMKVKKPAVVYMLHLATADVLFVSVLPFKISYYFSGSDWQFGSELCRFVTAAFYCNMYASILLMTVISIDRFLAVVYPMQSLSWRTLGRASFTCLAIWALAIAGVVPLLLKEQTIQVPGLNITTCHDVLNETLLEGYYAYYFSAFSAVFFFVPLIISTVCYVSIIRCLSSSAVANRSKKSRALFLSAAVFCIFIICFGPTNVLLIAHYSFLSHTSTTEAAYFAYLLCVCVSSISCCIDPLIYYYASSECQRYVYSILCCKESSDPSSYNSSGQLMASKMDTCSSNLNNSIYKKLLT
Method: Platelets from donors genotyped for […] were washed, incubated with the indicated concentrations of vorapaxar (VPX) (FIGS. 5A, 5B) or YD-3 (FIG. 5C) and then stimulated with (FIG. 5A) 5 μM PAR1-AP or (FIGS. 5B, 5C) 100 μM PAR4-AP. Aggregation was measured using light transmission aggregometry. n=3 each genotype. Horizontal lines indicate mean. […] Craig Lindsley at Vanderbilt University) as previously described.^27 Aggregation was then quantified after stimulation with 5 μM PAR1-AP or 100 μM PAR4-AP.

Structure (SMILES)	inhibition of PAR4-induced platelet aggregation (PAR4 [1]; rs773902 heterozygotes, FIG. 5C)	inhibition of PAR4-induced platelet aggregation (PAR4-Thr120)	inhibition of PAR4-induced platelet aggregation (PAR4-Ala120)	block of PAR4-induced platelet aggregation (PAR4 [2])	block of thrombin-induced platelet recruitment (platelets [3])	block of thrombin-induced smooth muscle cell proliferation (smooth muscle cell)	block of neutrophil-induced platelet aggregation (platelets [4])	intimal thickening [5]	inhibition of platelet aggregation through PAR1 (PAR1)	effect on PAR4-induced platelet aggregation (PAR4 [1]; washed platelets, regardless of rs773902 genotype, FIG. 5B)
CCOC(=O)c1ccc(-c2nn(Cc3ccccc3)c3ccccc23)cc1 [YD-3, ethyl 4-(1-benzyl-1H-indazol-3-yl)benzoate]	intermediate response	resistant	inhibited	specifically blocks; also recorded: blocking	blocks	blocks	blocks	attenuates		
CCOC(=O)N[C@@H]1CC[C@@H]2[C@@H](C1)C[C@H]1C(=O)O[C@H](C)[C@H]1[C@H]2/C=C/c1ccc(-c2cccc(F)c2)cn1 [vorapaxar]									efficiently inhibited	no effect
